Calls of active or inactive are those of the source. No cut-off for these calls is given here.
Key:
MDA-MB-231 = experiment: Antiproliferative activity against human MDA-MB-231 cells assessed as inhibition of cell growth incubated for 7 days by MTT assay; assay type: functional, cell-based; conditions: MDA-MB-231, 168 h
HCT-116 [1] = experiment: Antiproliferative activity against human HCT-116 cells assessed as inhibition of cell growth incubated for 7 days by MTT assay; assay type: functional, cell-based; conditions: HCT-116, 168 h
HCT-116 [2] = experiment: Inhibition of Wnt/beta-Catenin signaling in human HCT-116 cells assessed as increase in axin2 levels at 10 uM by Western blot analysis; assay type: cell-based
HCT-116 [3] = experiment: Inhibition of Wnt/beta-Catenin signaling in human HCT-116 cells assessed as decrease in total beta-catenin levels at 10 uM by Western blot analysis; assay type: cell-based
HCT-116 [4] = experiment: Inhibition of Wnt/beta-Catenin signaling in human HCT-116 cells assessed as decrease in cyclin D1 levels at 10 uM by Western blot analysis; assay type: cell-based
HCT-116 [5] = experiment: Downregulation of BRCA1 protein expression in human HCT-116 cells at 1 uM by Western blot analysis; assay type: functional, cell-based
HCT-116 [6] = experiment: Inhibition of homologous recombinant repair in human HCT-116 cells assessed as reduction in RAD51 foci formation at 1 uM incubated for 72 hrs by DAPI staining based immunofluorescence analysis; assay type: functional, cell-based
HCT-116 [7] = experiment: Induction of DNA damage in human HCT-116 cells assessed as increase in nuclear gammaH2AX foci incubated for 72 hrs by DAPI staining based immunofluorescence analysis; assay type: functional, cell-based; conditions: dose 1.0 µM
HCT-116 [8] = experiment: Induction of apoptosis in human HCT-116 cells assessed as viable cells at 5 uM incubated for 3 days by annexinV-FITC/propidium iodide staining based flow cytometry (reference value: 60.0 %); assay type: functional; conditions: Homo sapiens, HCT-116, 72 h, time 3 day, read-out: Activity
HCT-116 [9] = experiment: Induction of apoptosis in human HCT-116 cells assessed as early apoptotic cells at 5 uM incubated for 3 days by annexinV-FITC/propidium iodide staining based flow cytometry (reference value: 7.67 %); assay type: functional; conditions: time 3 day
HCT-116 [10] = experiment: Induction of apoptosis in human HCT-116 cells assessed as viable cells at 1 uM incubated for 3 days by annexinV-FITC/propidium iodide staining based flow cytometry (reference value: 60.0 %); assay type: functional; conditions: HCT-116, 72 h, time 3 day, read-out: Activity
HCT-116 [11] = experiment: Induction of apoptosis in human HCT-116 cells assessed as necrotic cells at 1 uM incubated for 3 days by annexinV-FITC/propidium iodide staining based flow cytometry (reference value: 3.65 %); assay type: functional; conditions: time 3 day
HCT-116 [12] = experiment: Induction of cell cycle arrest in human HCT-116 cells assessed as S phase cells at 5 uM incubated for 3 days by propidium iodide staining based flow cytometry (reference value: 11.26 %); assay type: functional; conditions: time 3 day
HCT-116 [13] = experiment: Induction of cell cycle arrest in human HCT-116 cells assessed as G2/M phase cells at 5 uM incubated for 3 days by propidium iodide staining based flow cytometry (reference value: 68.35 %); assay type: functional; conditions: time 3 day
[14] = Half-life in Sprague-Dawley rat at 10 mg/kg, po or 1 mg/kg, iv; assay type: ADME, organism-based; conditions: in vivo
[15] = Clearance in Sprague-Dawley rat at 10 mg/kg, po or 1 mg/kg, iv; assay type: ADME, organism-based; conditions: in vivo
[16] = Toxicity in […] assessed as effect on body weight at 500 mg/kg, ip administered as single dose and measured on day 2 (reference value: 23.25 +/- 2.22 g); assay type: organism-based; conditions: in vivo
[17] = Toxicity in […] assessed as effect on body weight at 500 mg/kg, ip administered as single dose and measured on day 4 (reference value: 24.50 +/- 3.11 g); assay type: organism-based; conditions: in vivo
[18] = Toxicity in […] assessed as morphological changes in duodenum at 500 mg/kg, ip by H&E staining based histopathological analysis; assay type: organism-based; conditions: in vivo
HCT-116 [19] = experiment: Antitumor activity against human HCT-116 cells xenografted in BALB/c nude mouse assessed as tumor growth inhibition at 25 mg/kg, ip administered once daily for 28 days; assay type: functional; conditions: HCT-116, 672 h, time 28 day, read-out: TGI
HCT-116 [20] = experiment: Antitumor activity against human HCT-116 cells xenografted in BALB/c nude mouse assessed as tumor growth inhibition at 100 mg/kg, ip administered once daily for 28 days; assay type: functional; conditions: HCT-116, 672 h, time 28 day, read-out: TGI
[21] = biological target: Poly [ADP-ribose] polymerase 1 (Homo sapiens, UniProt P09874); conditions: dose 10.0 nM, time 45.0 min
Sequence of Poly [ADP-ribose] polymerase 1 (P09874 whole entry): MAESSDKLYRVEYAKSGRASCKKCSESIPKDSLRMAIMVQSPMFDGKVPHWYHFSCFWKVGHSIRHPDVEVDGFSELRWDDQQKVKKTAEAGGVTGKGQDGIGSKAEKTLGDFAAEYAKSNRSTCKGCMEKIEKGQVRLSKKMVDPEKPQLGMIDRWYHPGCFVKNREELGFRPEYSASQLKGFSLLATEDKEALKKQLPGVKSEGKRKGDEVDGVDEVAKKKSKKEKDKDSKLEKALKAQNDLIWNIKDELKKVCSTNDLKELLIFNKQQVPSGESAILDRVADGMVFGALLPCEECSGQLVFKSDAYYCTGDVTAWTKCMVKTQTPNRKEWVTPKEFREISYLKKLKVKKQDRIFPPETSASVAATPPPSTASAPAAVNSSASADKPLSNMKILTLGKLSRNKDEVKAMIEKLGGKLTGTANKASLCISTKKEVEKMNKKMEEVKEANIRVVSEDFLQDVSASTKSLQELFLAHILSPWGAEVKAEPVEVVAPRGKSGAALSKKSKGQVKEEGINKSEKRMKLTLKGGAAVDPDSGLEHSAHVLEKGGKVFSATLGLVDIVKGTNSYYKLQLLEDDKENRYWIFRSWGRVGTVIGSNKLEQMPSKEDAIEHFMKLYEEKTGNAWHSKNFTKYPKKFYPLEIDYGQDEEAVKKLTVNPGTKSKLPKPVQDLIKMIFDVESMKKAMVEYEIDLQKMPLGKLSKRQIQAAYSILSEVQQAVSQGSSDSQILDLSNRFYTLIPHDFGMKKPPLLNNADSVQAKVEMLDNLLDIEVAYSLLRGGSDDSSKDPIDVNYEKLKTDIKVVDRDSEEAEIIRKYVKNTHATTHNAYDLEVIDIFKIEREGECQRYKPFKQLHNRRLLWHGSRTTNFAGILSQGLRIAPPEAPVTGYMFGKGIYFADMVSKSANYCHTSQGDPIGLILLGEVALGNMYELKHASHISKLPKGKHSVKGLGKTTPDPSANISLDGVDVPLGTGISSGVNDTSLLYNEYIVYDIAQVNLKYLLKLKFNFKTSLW

[22] = biological target: T1, Poly [ADP-ribose] polymerase tankyrase-2 (Homo sapiens) (UniProt Q9H2K2); conditions: dose 10.0 nM, time 1.0 hrs
T1 sequence (whole entry): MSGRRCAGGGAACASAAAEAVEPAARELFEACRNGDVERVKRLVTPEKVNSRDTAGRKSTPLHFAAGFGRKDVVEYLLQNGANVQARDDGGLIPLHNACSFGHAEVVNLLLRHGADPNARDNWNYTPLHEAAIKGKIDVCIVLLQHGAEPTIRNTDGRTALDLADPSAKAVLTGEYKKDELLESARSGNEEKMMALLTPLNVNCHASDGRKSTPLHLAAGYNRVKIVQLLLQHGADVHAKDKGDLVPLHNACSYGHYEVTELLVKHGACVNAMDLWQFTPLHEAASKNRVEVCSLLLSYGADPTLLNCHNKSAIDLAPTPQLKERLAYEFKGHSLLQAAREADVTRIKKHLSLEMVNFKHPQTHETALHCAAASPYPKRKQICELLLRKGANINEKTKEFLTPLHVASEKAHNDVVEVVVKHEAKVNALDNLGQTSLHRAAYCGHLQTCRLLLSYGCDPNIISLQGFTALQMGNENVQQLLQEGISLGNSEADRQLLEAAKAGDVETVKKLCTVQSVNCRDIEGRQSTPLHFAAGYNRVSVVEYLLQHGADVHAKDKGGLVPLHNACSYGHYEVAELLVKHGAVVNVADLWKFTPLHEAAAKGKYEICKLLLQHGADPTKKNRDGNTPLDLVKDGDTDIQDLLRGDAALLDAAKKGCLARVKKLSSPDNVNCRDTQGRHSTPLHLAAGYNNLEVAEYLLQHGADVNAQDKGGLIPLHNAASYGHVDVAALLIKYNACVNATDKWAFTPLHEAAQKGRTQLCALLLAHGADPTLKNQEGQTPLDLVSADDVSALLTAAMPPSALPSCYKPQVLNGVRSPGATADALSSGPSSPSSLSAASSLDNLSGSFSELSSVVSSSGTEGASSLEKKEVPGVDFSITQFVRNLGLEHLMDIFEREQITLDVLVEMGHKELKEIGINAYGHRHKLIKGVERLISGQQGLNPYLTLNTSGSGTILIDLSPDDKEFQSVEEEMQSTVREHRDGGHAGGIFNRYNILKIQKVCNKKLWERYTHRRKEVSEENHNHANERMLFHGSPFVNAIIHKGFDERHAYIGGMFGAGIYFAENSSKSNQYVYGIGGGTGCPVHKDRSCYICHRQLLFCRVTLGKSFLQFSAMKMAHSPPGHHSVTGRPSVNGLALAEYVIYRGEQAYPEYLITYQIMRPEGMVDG

## COc1ccc(NC(=O)c2ccc(NC(=O)N3CCN(C(=O)c4cc(Cc5n[nH]c(=O)c6ccccc56)ccc4F)CC3)cc2)cc1
MDA-MB-231
  IC50: 870 nM
HCT-116 [1]
  IC50: 750 nM
HCT-116 [2]
  inhibition: Active
HCT-116 [3]
  inhibition: Active
HCT-116 [4]
  inhibition: Active
HCT-116 [5]
  Activity: Active
HCT-116 [6]
  inhibition: Active
HCT-116 [7]
  Activity: Active
HCT-116 [8]
  viability at 5 µM: 45.1%
HCT-116 [9]
  Activity: 6.61%
HCT-116 [10]
  viability at 1 µM: 71.3%
HCT-116 [11]
  Activity: 4.57%
HCT-116 [12]
  Activity: 4.19%
HCT-116 [13]
  Activity: 54.6%
[14]
  half-life: 1.73 h
[15]
  CL: 90.67 mL/min/kg
[16]
  Activity: 20.75 g
[17]
  Activity: 23 g
[18]
  Activity: Non-Toxic
HCT-116 [19]
  inhibition in vivo at 25 mg/kg: 31.7%
HCT-116 [20]
  inhibition in vivo at 100 mg/kg: 51.7%
[21]
  inhibition: 97%
[22]
  inhibition: 68.5%

— ChEMBL document CHEMBL5120857, “Rational design, synthesis and biological evaluation of dual PARP-1/2 and TNKS1/2 inhibitors for cancer therapy” (Eur J Med Chem, 2022)
